Source: patent US20260256778A1 (AbbVie Inc., priority 2023, published 2026)
Values after ≈ are worked out from the molar mass of the structure shown. Like-named read-outs stand apart in the source and are kept apart here.

Columns and labels:
[1] = Solubility of upadacitinib in different aqueous media at 37° C.; type: physicochemical
[2] = test system: non-segmental vitiligo (NSV); conditions: for Percent CFB in F-VASI; LSMEAN (SE): Week 24, MMRM; for F-VASI 75; (%): Week 24, NRI
[3] = test system: inflammatory chemotactic proteins (CXCL9 and 10) and T-cell activation markers (IL12B and TNFSF9); assay: Serum type 1 inflammation biomarkers in the Phase 2 study; type: in vivo, human
Text: (§1) No differences were apparent for active vs. stable subjects.

[4] = test system: CXCL10; assay: Serum CXCL10 level in the Phase 2 study; type: in vivo, human; conditions: by week 2, all dose groups
Text: as §1

[5] = test system: facial vitiligo area; assay: 3D digital imaging substudy of facial vitiligo area (Example 3); type: in vivo, human; design: F-VASI, Wk 24: scale not given here; conditions: for percent reduction of facial vitiligo area from Baseline by 3D imaging / Treatment effect size, Cohen's d of 3D Imaging / Treatment effect size, Cohen's d of F-VASI: Week 24
Text: Specifically, multiple stereoscopic images were captured by a proprietary optical 3D scanner for a subset of patients in the referenced study. The data acquisition procedure and determination of vitiligo area using the 3D platform were as follows: • 1. Subject was scanned, acquiring 2D raw color images with real time feedback to generate 3D gray low-resolution model • 2. Full resolution color model generated and uploaded to cloud • 3. Web application opened by investigator, who manually selected threshold for each region of face. • 4. The detected vitiligo area was measured and results reported
To accomplish these objectives, twenty-seven subjects were enrolled into the 3D imaging substudy across 6 clinical sites. Twenty-one subjects had high quality 3D images available at Week 24 for analysis. Subjects who enrolled in the 3D digital imaging substudy were randomized as per the main protocol. The demographics, including Fitzpatrick skin types, and baseline disease characteristics in the 3D imaging substudy are provided in Table 9. With reference to Table 9, the demographics were in general consistent with the overall study population.
The quality and completeness of each scan was assessed by a visual inspection of the resulting 3D image by the technician and/or investigator, utilizing Wood's lamp visualization to set a threshold at Baseline, defined as the intensity value used to distinguish which 3D pixels within the image belong to the vitiligo area or to the normal skin area. The threshold value determined by the investigator at Baseline remained constant and applied to all post-baseline 3D images during the treatment period to reflect changes in the pigmentation. Each 3D image included 10 predefined anatomic regions of the face: forehead, left eye, right eye, left lateral cheek/temple, left middle cheek, nose, right middle cheek, right lateral cheek/temple, upper lip, and chin. Results are presented as the sum of vitiligo area measurement (cm^2) across all anatomic regions of the face.

[6] = 6 mg QD, Week 24, change from baseline, 44 patients
[7] = 11 mg QD, Week 24, change from baseline, 45 patients
[8] = 22 mg QD, Week 24, change from baseline, 34 patients
[9] = 22 mg QD, one representative subject, Baseline to Week 24
[10] = Placebo (N = 3) vs 6 mg (N = 7)
[11] = Placebo (N = 3) vs 11 mg (N = 6)
[12] = Placebo (N = 3) vs 22 mg (N = 5)

Question: Which results are given for CC[C@@H]1CN(C(=O)NCC(F)(F)F)C[C@@H]1c1cnc2cnc3[nH]ccc3n12 [Upadacitinib, (3S,4R)-3-ethyl-4-(3H-imidazo[1,2-a]pyrrolo[2,3-e]pyrazin-8-yl)-N-(2,2,2-trifluoroethyl) pyrrolidine-1-carboxamide]?
Answer: solubility ([1]; 50 mM carbonate buffer, 37 °C, pH 9.11, aqueous buffer, thermodynamic from solid): 199 ± 6 µg/mL (≈ 523 µM); Solubility (in words) ([1]; at low pH): good solubility; VitiQoL LS mean change ([2]; 6 mg): −7.5%; Percent CFB in F-VASI; LSMEAN (SE) ([2]; 6 mg QD oral): −21.96 (5.162) Percent; CFB in VitiQoL Total Score; LSMEAN (SE) ([2]; 6 mg QD, Week 24): −7.5 (2.27); Percent CFB in T-VASI; LSMEAN (SE) ([2]; 6 mg QD, Week 24): −13.87 (3.332) Percent; T-VASI 50; (%) ([2]; 6 mg QD, Week 24): 6.1%; Δ vs PBO, CFB in VitiQoL Total Score ([2]; 6 mg QD, Week 24): Δ = −1.9;; Δ vs PBO, F-VASI 50 ([2]; 6 mg QD, Week 24): Δ = 6.6;; Δ vs PBO, F-VASI 75 ([2]; 6 mg QD, Week 24): Δ = 6.9;; Δ vs PBO, Percent CFB in F-VASI ([2]; 6 mg QD, Week 24): Δ = −7.60;; Δ vs PBO, Percent CFB in T-VASI ([2]; 6 mg QD, Week 24): Δ = −7.45;; Δ vs PBO, T-VASI 50 ([2]; 6 mg QD, Week 24): Δ = 3.7;; Δ vs PBO, much better or a little better on PaGIC ([2]; 6 mg QD, Week 24): Δ = 14.3%; Δ vs PBO, much better or a little better on PhGIC ([2]; 6 mg QD, Week 24): Δ = 18%; Achieving much better or a little better on PaGIC (PaGIC-V score of 1 or 2), responders n ([2]; 6 mg QD, Week 24, N = 49): 17 n; F-VASI 50; n ([2]; 6 mg QD, Week 24, N = 49): 8 n; T-VASI 50; n ([2]; 6 mg QD, Week 24, N = 49): 3 n; VNS score of 4 or 5, Responders n ([2]; 6 mg QD, Week 24, N = 49): 0 n; F-VASI 75; n ([2]; 6 mg QD, Week 24, N = 49, NRI): 4 n; F-VASI 75; (%) ([2]; 6 mg QD): 8.2%; DLQI LS mean change ([2]; 6 mg QD, Week 24, change from baseline, 43 patients): −1.4%; HADS Anxiety LS mean change [2, 6]: −0.7%; HADS Depression LS mean change [2, 6]: 0.2%; Percent CFB in F-VASI ([2]; 6 mg, Week 52, As Observed, N = 38): −52.7%; Percent CFB in F-VASI ([2]; 6 mg, Week 52, Intent-to-Treat, MMRM/NRI-MI, N = 49): −52.3%; Percent CFB in F-VASI; LSMEAN (SE) ([2]; 11 mg QD oral): −35.63 (5.297) Percent; CFB in VitiQoL Total Score; LSMEAN (SE) ([2]; 11 mg QD, Week 24): −3.7 (2.30); Percent CFB in T-VASI; LSMEAN (SE) ([2]; 11 mg QD, Week 24): −17.26 (3.414) Percent; T-VASI 50; (%) ([2]; 11 mg QD, Week 24): 6.4%; Δ vs PBO, CFB in VitiQoL Total Score ([2]; 11 mg QD, Week 24): Δ = 1.9;; Δ vs PBO, F-VASI 50 ([2]; 11 mg QD, Week 24): Δ = 29.3;; Δ vs PBO, F-VASI 75 ([2]; 11 mg QD, Week 24): Δ = 17.8;; Δ vs PBO, Percent CFB in F-VASI ([2]; 11 mg QD, Week 24): Δ = −21.27;; Δ vs PBO, Percent CFB in T-VASI ([2]; 11 mg QD, Week 24): Δ = −10.84;; Δ vs PBO, T-VASI 50 ([2]; 11 mg QD, Week 24): Δ = 3.8;; Δ vs PBO, much better or a little better on PaGIC ([2]; 11 mg QD, Week 24): Δ = 38.5%; Δ vs PBO, much better or a little better on PhGIC ([2]; 11 mg QD, Week 24): Δ = 37.8%; Achieving much better or a little better on PaGIC (PaGIC-V score of 1 or 2), responders n ([2]; 11 mg QD, Week 24, N = 47): 26 n; F-VASI 50; n ([2]; 11 mg QD, Week 24, N = 47): 18 n; T-VASI 50; n ([2]; 11 mg QD, Week 24, N = 47): 3 n; VNS score of 4 or 5, Responders n ([2]; 11 mg QD, Week 24, N = 47): 0 n; F-VASI 75; n ([2]; 11 mg QD, Week 24, N = 47, NRI): 9 n; F-VASI 75; (%) ([2]; 11 mg QD): 19.1%; DLQI LS mean change ([2]; 11 mg QD, Week 24, change from baseline, 42 patients): −1.2%; VitiQoL LS mean change ([2]; 11 mg QD, Week 24, change from baseline, 44 patients): −3.7%; HADS Anxiety LS mean change [2, 7]: 0.0%; HADS Depression LS mean change [2, 7]: −0.3%; Percent CFB in F-VASI ([2]; 11 mg, Week 52, As Observed, N = 38): −64.8%; Percent CFB in F-VASI ([2]; 11 mg, Week 52, Intent-to-Treat, MMRM/NRI-MI, N = 47): −62.8%; Percent CFB in F-VASI; LSMEAN (SE) ([2]; 22 mg QD oral): −33.96 (5.793) Percent; Percent CFB in T-VASI; LSMEAN (SE) ([2]; 22 mg QD, Week 24): −20.69 (3.731) Percent; T-VASI 50; (%) ([2]; 22 mg QD, Week 24): 11.6%; VNS score of 4 or 5, Responders (%) ([2]; 22 mg QD, Week 24): (11.6) %; Δ vs PBO, CFB in VitiQoL Total Score ([2]; 22 mg QD, Week 24): Δ = −1.1;; Δ vs PBO, F-VASI 50 ([2]; 22 mg QD, Week 24): Δ = 28.7;; Δ vs PBO, F-VASI 75 ([2]; 22 mg QD, Week 24): Δ = 11.7;; Δ vs PBO, Percent CFB in F-VASI ([2]; 22 mg QD, Week 24): Δ = −19.60;; Δ vs PBO, Percent CFB in T-VASI ([2]; 22 mg QD, Week 24): Δ = −14.27;; Δ vs PBO, T-VASI 50 ([2]; 22 mg QD, Week 24): Δ = 9.1;; Δ vs PBO, much better or a little better on PaGIC ([2]; 22 mg QD, Week 24): Δ = 41.1%; Δ vs PBO, much better or a little better on PhGIC ([2]; 22 mg QD, Week 24): Δ = 32%; Achieving much better or a little better on PaGIC (PaGIC-V score of 1 or 2), responders n ([2]; 22 mg QD, Week 24, N = 43): 26 n; F-VASI 50; n ([2]; 22 mg QD, Week 24, N = 43): 17 n; T-VASI 50; n ([2]; 22 mg QD, Week 24, N = 43): 5 n; VNS score of 4 or 5, Responders n ([2]; 22 mg QD, Week 24, N = 43): 5 n; F-VASI 75; n ([2]; 22 mg QD, Week 24, N = 43, NRI): 6 n; F-VASI 75; (%) ([2]; 22 mg QD): 14.0%; HADS Anxiety LS mean change [2, 8]: −0.3%; HADS Depression LS mean change [2, 8]: −0.1%; VitiQoL LS mean change [2, 8]: −6.6%; DLQI LS mean change ([2]; 22 mg QD, Week 24, change from baseline, 35 patients): −2.2%; Percent CFB in F-VASI ([2]; 22 mg, Week 52, As Observed, N = 29): −60.8%; Percent CFB in F-VASI ([2]; 22 mg, Week 52, Intent-to-Treat, MMRM/NRI-MI, N = 43): −59.2%; Inhibition of type 1 inflammation biomarkers ([3]; 11 mg dose): maximal inhibition was achieved; Change from baseline in CXCL9, CXCL10, IL12B and TNFSF9 ([3]; all upadacitinib doses, from week 2 through week 24, data not shown): Reductions from baseline were observed; CXCL10 levels [4]: reduced to those in healthy volunteers; % Change Facial Vitiligo Area by 3D Imaging at Week 24, Mean ([5]; 6 mg QD, N 7): −15.20%; % Change Facial Vitiligo Area by 3D Imaging at Week 24, Median ([5]; 6 mg QD, N 7): −9.85%; percent reduction of facial vitiligo area from Baseline by 3D imaging ([5]; 6 mg QD): 15.2%; % Change Facial Vitiligo Area by 3D Imaging at Week 24, Mean ([5]; 11 mg QD, N 6): −34.96%; % Change Facial Vitiligo Area by 3D Imaging at Week 24, Median ([5]; 11 mg QD, N 6): −37.38%; percent reduction of facial vitiligo area from Baseline by 3D imaging ([5]; 11 mg QD): 34.96%; % Change Facial Vitiligo Area by 3D Imaging at Week 24, Mean ([5]; 22 mg QD, N 5): −23.00%; % Change Facial Vitiligo Area by 3D Imaging at Week 24, Median ([5]; 22 mg QD, N 5): −27.2%; percent reduction of facial vitiligo area from Baseline by 3D imaging ([5]; 22 mg QD): 23%; Cherry 3D imaging vitiligo area, % change [5, 9]: −27.2%; F-VASI, % change [5, 9]: −24.62%; Cherry 3D imaging vitiligo area, % change ([5]; 22 mg QD, one representative subject, Baseline to Week 24, listed as upadacitinib): −27.20%; Cherry 3D imaging vitiligo area, Wk 24 ([5]; 22 mg QD, one representative subject, Fitzpatrick Type III, baseline 215.84): 157.13 cm^2; F-VASI, Wk 24 ([5]; 22 mg QD, one representative subject, baseline 1.3): 0.98; percent change from baseline in vitiligo extent score (VES) by 3D imaging evaluation ([5]; 11 and 22 mg versus placebo, preliminary): greater percent change from baseline; Treatment effect size, Cohen's d of 3D Imaging [5, 10]: 0.50; Treatment effect size, Cohen's d of F-VASI [5, 10]: 0.76; Treatment effect size, Cohen's d of 3D Imaging [5, 11]: > 0.8; Treatment effect size, Cohen's d of F-VASI [5, 11]: 0.13; Treatment effect size, Cohen's d of 3D Imaging ([5]; Placebo (N = 3) vs 11 mg (N = 6), listed as UPA): 1.36; Treatment effect size, Cohen's d of 3D Imaging [5, 12]: > 0.8; Treatment effect size, Cohen's d of F-VASI [5, 12]: 0.61; Treatment effect size, Cohen's d of 3D Imaging ([5]; Placebo (N = 3) vs 22 mg (N = 5), listed as UPA): 1.02
